Laboratory results: the NIST ThermoML archive (doi:10.1016/j.jct.2018.09.003)
Numbers after ± are expanded uncertainties.

Legend:
[1] = activity coefficient (dimensionless); of the first substance listed, at infinite dilution; xn = mol fraction of the nth substance listed; settings: 101.33 kPa, Liquid, Chromatography, x1 = 0
[2] = 101.33 kPa, Liquid, Vibrating tube method

| SMILES | activity coefficient ([1]; 313.15 K) | activity coefficient ([1]; 323.15 K) | activity coefficient ([1]; 333.15 K) | activity coefficient ([1]; 343.15 K) | activity coefficient ([1]; 353.15 K) | mass density ([2]; 313.15 K) [kg/m3] | mass density ([2]; 323.15 K) [kg/m3] | mass density ([2]; 333.15 K) [kg/m3] | mass density ([2]; 343.15 K) [kg/m3] | mass density ([2]; 353.15 K) [kg/m3] |
| --- | --- | --- | --- | --- | --- | --- | --- | --- | --- | --- |
| Cc1ccccc1C [1,2-dimethylbenzene] + CCCCCCCCn1cc[n+](C)c1C.F[B-](F)(F)F | 3.5 ± 0.37 | 3.58 ± 0.38 | 3.7 ± 0.39 | 3.82 ± 0.4 | 3.87 ± 0.41 | – | – | – | – | – |
| Cc1cccc(C)c1 [1,3-dimethylbenzene] + CCCCCCCCn1cc[n+](C)c1C.F[B-](F)(F)F | 4.19 ± 0.44 | 4.24 ± 0.45 | 4.29 ± 0.45 | 4.35 ± 0.46 | 4.4 ± 0.46 | – | – | – | – | – |
| Cc1ccc(C)cc1 [1,4-dimethylbenzene] + CCCCCCCCn1cc[n+](C)c1C.F[B-](F)(F)F | 4.06 ± 0.43 | 4.12 ± 0.43 | 4.16 ± 0.44 | 4.2 ± 0.44 | 4.24 ± 0.45 | – | – | – | – | – |
| C1COCCO1 [1,4-dioxane] + CCCCCCCCn1cc[n+](C)c1C.F[B-](F)(F)F | 1.67 ± 0.17 | 1.72 ± 0.18 | 1.77 ± 0.18 | 1.81 ± 0.19 | 1.86 ± 0.19 | – | – | – | – | – |
| CC(C)=O [acetone] + CCCCCCCCn1cc[n+](C)c1C.F[B-](F)(F)F | 1.38 ± 0.14 | 1.4 ± 0.14 | 1.41 ± 0.15 | 1.42 ± 0.15 | 1.43 ± 0.15 | – | – | – | – | – |
| CC#N [acetonitrile] + CCCCCCCCn1cc[n+](C)c1C.F[B-](F)(F)F | 1.01 ± 0.1 | 1.02 ± 0.1 | 1.04 ± 0.11 | 1.05 ± 0.11 | 1.07 ± 0.11 | – | – | – | – | – |
| c1ccccc1 [benzene] + CCCCCCCCn1cc[n+](C)c1C.F[B-](F)(F)F | 2.04 ± 0.21 | 2.07 ± 0.22 | 2.1 ± 0.22 | 2.12 ± 0.22 | 2.15 ± 0.23 | – | – | – | – | – |
| C1CCCCC1 [cyclohexane] + CCCCCCCCn1cc[n+](C)c1C.F[B-](F)(F)F | 12.8 ± 1.4 | 12.5 ± 1.3 | 12.2 ± 1.3 | 11.9 ± 1.2 | 11.5 ± 1.2 | – | – | – | – | – |
| C1=CCCCC1 [cyclohexene] + CCCCCCCCn1cc[n+](C)c1C.F[B-](F)(F)F | 8.2 ± 0.86 | 8.01 ± 0.84 | 7.81 ± 0.82 | 7.63 ± 0.8 | 7.52 ± 0.79 | – | – | – | – | – |
| CO [methanol] + CCCCCCCCn1cc[n+](C)c1C.F[B-](F)(F)F | 1.57 ± 0.16 | 1.47 ± 0.15 | 1.36 ± 0.14 | 1.26 ± 0.13 | 1.18 ± 0.12 | – | – | – | – | – |
| CC1CCCCC1 [methylcyclohexane] + CCCCCCCCn1cc[n+](C)c1C.F[B-](F)(F)F | 15.8 ± 1.7 | 15.5 ± 1.6 | 15.1 ± 1.6 | 14.7 ± 1.6 | 14.3 ± 1.5 | – | – | – | – | – |
| CC(C)O [propan-2-ol] + CCCCCCCCn1cc[n+](C)c1C.F[B-](F)(F)F | 2.5 ± 0.26 | 2.35 ± 0.25 | 2.2 ± 0.23 | 2.07 ± 0.22 | 1.93 ± 0.2 | – | – | – | – | – |
| ClC(Cl)(Cl)Cl [tetrachloromethane] + CCCCCCCCn1cc[n+](C)c1C.F[B-](F)(F)F | 4.11 ± 0.43 | 4.16 ± 0.44 | 4.2 ± 0.44 | 4.23 ± 0.44 | 4.26 ± 0.45 | – | – | – | – | – |
| C1CCOC1 [tetrahydrofuran] + CCCCCCCCn1cc[n+](C)c1C.F[B-](F)(F)F | 2.06 ± 0.22 | 2.1 ± 0.22 | 2.12 ± 0.22 | 2.13 ± 0.22 | 2.15 ± 0.23 | – | – | – | – | – |
| Cc1ccccc1 [toluene] + CCCCCCCCn1cc[n+](C)c1C.F[B-](F)(F)F | 2.84 ± 0.3 | 2.89 ± 0.3 | 2.95 ± 0.31 | 3.02 ± 0.32 | 3.09 ± 0.32 | – | – | – | – | – |

Other lines, results leading:

| activity coefficient ([1]; 313.15 K) | activity coefficient ([1]; 323.15 K) | activity coefficient ([1]; 333.15 K) | activity coefficient ([1]; 343.15 K) | activity coefficient ([1]; 353.15 K) | mass density ([2]; 313.15 K) [kg/m3] | mass density ([2]; 323.15 K) [kg/m3] | mass density ([2]; 333.15 K) [kg/m3] | mass density ([2]; 343.15 K) [kg/m3] | mass density ([2]; 353.15 K) [kg/m3] | SMILES |
| --- | --- | --- | --- | --- | --- | --- | --- | --- | --- | --- |
| – | – | – | – | – | 1092.3 ± 2.5 | 1086 ± 2.5 | 1079.7 ± 2.5 | 1073.3 ± 2.5 | 1067 ± 2.5 | CCCCCCCCn1cc[n+](C)c1C.F[B-](F)(F)F [1-octyl-2,3-dimethylimidazolium tetrafluoroborate] |
| 29.6 ± 3.1 | 28.8 ± 3 | 27.9 ± 2.9 | 26.9 ± 2.8 | 26.1 ± 2.8 | – | – | – | – | – | CC(C)CC(C)(C)C [2,2,4-trimethylpentane] + CCCCCCCCn1cc[n+](C)c1C.F[B-](F)(F)F |
| 2.66 ± 0.28 | 2.54 ± 0.27 | 2.42 ± 0.25 | 2.3 ± 0.24 | 2.19 ± 0.23 | – | – | – | – | – | CC(C)CO [2-methyl-1-propanol] + CCCCCCCCn1cc[n+](C)c1C.F[B-](F)(F)F |
| 2.79 ± 0.29 | 2.64 ± 0.28 | 2.52 ± 0.26 | 2.4 ± 0.25 | 2.28 ± 0.24 | – | – | – | – | – | CCCCO [butan-1-ol] + CCCCCCCCn1cc[n+](C)c1C.F[B-](F)(F)F |
| 2.93 ± 0.31 | 2.78 ± 0.29 | 2.65 ± 0.28 | 2.51 ± 0.26 | 2.4 ± 0.25 | – | – | – | – | – | CCC(C)O (stereo not given) [butan-2-ol] + CCCCCCCCn1cc[n+](C)c1C.F[B-](F)(F)F |
| 55.2 ± 5.8 | 54.2 ± 5.7 | 52.9 ± 5.6 | 51.5 ± 5.4 | 50.5 ± 5.3 | – | – | – | – | – | CCCCCCCCCC [decane] + CCCCCCCCn1cc[n+](C)c1C.F[B-](F)(F)F |
| 1.08 ± 0.11 | 1.09 ± 0.11 | 1.1 ± 0.11 | 1.1 ± 0.11 | 1.11 ± 0.11 | – | – | – | – | – | ClCCl [dichloromethane] + CCCCCCCCn1cc[n+](C)c1C.F[B-](F)(F)F |
| 2.12 ± 0.22 | 1.96 ± 0.21 | 1.82 ± 0.19 | 1.67 ± 0.17 | 1.54 ± 0.16 | – | – | – | – | – | CCO [ethanol] + CCCCCCCCn1cc[n+](C)c1C.F[B-](F)(F)F |
| 2.91 ± 0.31 | 2.96 ± 0.31 | 2.96 ± 0.31 | 2.96 ± 0.31 | 2.96 ± 0.31 | – | – | – | – | – | CCOC(C)=O [ethyl acetate] + CCCCCCCCn1cc[n+](C)c1C.F[B-](F)(F)F |
| 4.36 ± 0.46 | 4.42 ± 0.46 | 4.46 ± 0.47 | 4.5 ± 0.47 | 4.57 ± 0.48 | – | – | – | – | – | CCc1ccccc1 [ethylbenzene] + CCCCCCCCn1cc[n+](C)c1C.F[B-](F)(F)F |
| 25.5 ± 2.7 | 25.1 ± 2.6 | 24.7 ± 2.6 | 24.3 ± 2.5 | 23.9 ± 2.5 | – | – | – | – | – | CCCCCCC [heptane] + CCCCCCCCn1cc[n+](C)c1C.F[B-](F)(F)F |
| 20 ± 2.1 | 19.8 ± 2.1 | 19.2 ± 2 | 18.7 ± 2 | 18.1 ± 1.9 | – | – | – | – | – | CCCCCC [hexane] + CCCCCCCCn1cc[n+](C)c1C.F[B-](F)(F)F |
| 42.2 ± 4.4 | 41.1 ± 4.3 | 39.6 ± 4.2 | 38.4 ± 4 | 37.1 ± 3.9 | – | – | – | – | – | CCCCCCCCC [nonane] + CCCCCCCCn1cc[n+](C)c1C.F[B-](F)(F)F |
| 33 ± 3.5 | 32.5 ± 3.4 | 32.2 ± 3.4 | 31.8 ± 3.3 | 31.3 ± 3.3 | – | – | – | – | – | CCCCCCCC [octane] + CCCCCCCCn1cc[n+](C)c1C.F[B-](F)(F)F |
| 15.8 ± 1.7 | 15.3 ± 1.6 | 14.8 ± 1.6 | 14.3 ± 1.5 | 14 ± 1.5 | – | – | – | – | – | CCCCC [pentane] + CCCCCCCCn1cc[n+](C)c1C.F[B-](F)(F)F |
| 2.56 ± 0.27 | 2.39 ± 0.25 | 2.24 ± 0.24 | 2.1 ± 0.22 | 1.97 ± 0.21 | – | – | – | – | – | CCCO [propan-1-ol] + CCCCCCCCn1cc[n+](C)c1C.F[B-](F)(F)F |
| 1.04 ± 0.11 | 1.06 ± 0.11 | 1.07 ± 0.11 | 1.08 ± 0.11 | 1.09 ± 0.11 | – | – | – | – | – | ClC(Cl)Cl [trichloromethane] + CCCCCCCCn1cc[n+](C)c1C.F[B-](F)(F)F |
